≈ marks a conversion by molar mass, not a printed value. Residues, ends and D or L forms follow the SMILES beside them.
Assays:
Assay in all cases: microbe, parasite or virus in culture
P. aeruginosa = tested on: P. aeruginosa
Outline: (§1)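 Broth microdilution in MHB, 2-fold 12-point series from 128 or 64 down to 0.06 or 0.03 μg mL^−1, 5 × 10^5 CFU mL^−1. Extra runs in CAMHB per CLSI and in MHB with 1% agarose; n ≥ 6.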

S. aureus = details: BMD; range over strains and media
Outline: as §1

S. enterica Typhi = details: Typhi
Outline: as §1

[1] = tested on: A. baumannii clinical isolates; details: clinical isolates
Outline: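 MIC90 from CLSI broth microdilution (M07-A9) in two clinical-isolate panels. US panel (331 isolates, 2010-2012): AA139 diluted in 0.01% acetic acid/0.1% BSA. Worldwide panel (445 isolates, 2011-2013, four regions): CAMHB, with 0.002% Tween 80 added for AA139 and polymyxin B.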

**Q.** How did the “MIC, broth microdilution” value (P. aeruginosa; P. aeruginosa ATCC 27853 spontaneous mutant, AA139 selection 8X, plate 1, colony 1, drug-free passage 1) turn out when `CC(C)[C@@H]1NC(=O)[C@H](Cc2ccc(O)cc2)NC(=O)[C@H](Cc2c[nH]c3ccccc23)NC(=O)[C@@H](NC(=O)[C@H](Cc2ccccc2)NC(=O)CN)CSSC[C@@H](C(=O)N[C@@H](CC(N)=O)C(=O)O)NC(=O)[C@H](CCCNC(=N)N)NC(=O)[C@H](CCCNC(=N)N)NC(=O)[C@H](Cc2ccc(O)cc2)NC(=O)[C@@H]2CSSC[C@H](NC1=O)C(=O)N[C@@H](C)C(=O)N[C@@H](CCCNC(=N)N)C(=O)N[C@@H](CCCNC(=N)N)C(=O)N[C@@H](CC(N)=O)C(=O)NCC(=O)N[C@@H](C)C(=O)N[C@@H](CCCNC(=N)N)C(=O)N[C@@H](C(C)C)C(=O)N2` [AA139] (HELM PEPTIDE1{G.F.C.W.Y.V.C.A.R.R.N.G.A.R.V.C.Y.R.R.C.N}$PEPTIDE1,PEPTIDE1,3:R3-20:R3|PEPTIDE1,PEPTIDE1,7:R3-16:R3$$$V2.0) was run?
**A.** 1, 1 µg/mL

**Q.** And the “MIC, broth microdilution” value (P. aeruginosa; P. aeruginosa ATCC 27853 spontaneous mutant, AA139 selection 8X, plate 1, colony 1, drug-free passage 5)?
**A.** 1, 1 µg/mL

**Q.** What about the “MIC, broth microdilution” value (P. aeruginosa; P. aeruginosa ATCC 27853 spontaneous mutant, AA139 selection 8X, plate 1, colony 2, drug-free passage 1) of the same molecule?
**A.** 1 µg/mL (≈ 0.392 µM)

**Q.** What about the “MIC, broth microdilution” value (P. aeruginosa; P. aeruginosa ATCC 27853 spontaneous mutant, AA139 selection 8X, plate 1, colony 2, drug-free passage 5) of the same molecule?
**A.** 2 µg/mL (≈ 0.784 µM)

**Q.** What about the “MIC, broth microdilution” value (P. aeruginosa; P. aeruginosa ATCC 27853 spontaneous mutant, AA139 selection 8X, plate 1, colony 3, drug-free passage 1) of the same molecule?
**A.** 1, 1 µg/mL

**Q.** And the “MIC, broth microdilution” value (P. aeruginosa; P. aeruginosa ATCC 27853 spontaneous mutant, AA139 selection 8X, plate 1, colony 3, drug-free passage 5)?
**A.** 1, 1 µg/mL

**Q.** What about the “MIC, broth microdilution” value (P. aeruginosa; P. aeruginosa ATCC 27853 spontaneous mutant, AA139 selection 8X, plate 1, colony 4, drug-free passage 1) of the same molecule?
**A.** 1, 1 µg/mL

**Q.** What about the “MIC, broth microdilution” value (P. aeruginosa; P. aeruginosa ATCC 27853 spontaneous mutant, AA139 selection 8X, plate 1, colony 4, drug-free passage 5) of the same molecule?
**A.** 1, 1 µg/mL

**Q.** What about the “MIC, broth microdilution” value (P. aeruginosa; P. aeruginosa ATCC 27853 spontaneous mutant, AA139 selection 8X, plate 1, colony 5, drug-free passage 1) of the same molecule?
**A.** 1, 1 µg/mL

**Q.** And the “MIC, broth microdilution” value (P. aeruginosa; P. aeruginosa ATCC 27853 spontaneous mutant, AA139 selection 8X, plate 1, colony 5, drug-free passage 5)?
**A.** 1, 1 µg/mL

**Q.** What about the “BMD MIC” value (P. aeruginosa; P. aeruginosa FADDI-070, MDR, PmxR, MHB/CAMHB, mode of 6 replicates) of the same molecule?
**A.** 2 mg/L

**Q.** And the “MIC, broth microdilution” value (P. aeruginosa; P. aeruginosa UNT 138-1 spontaneous mutant, AA139 selection 4X, plate 1, colony 1, drug-free passage 1)?
**A.** 2, 2 µg/mL

**Q.** And the “MIC, broth microdilution” value (P. aeruginosa; P. aeruginosa UNT 138-1 spontaneous mutant, AA139 selection 4X, plate 1, colony 1, drug-free passage 5)?
**A.** 2, 2 µg/mL

**Q.** What about the “MIC, broth microdilution” value (P. aeruginosa; P. aeruginosa UNT 138-1 spontaneous mutant, AA139 selection 4X, plate 1, colony 2, drug-free passage 1) of the same molecule?
**A.** 1, 1 µg/mL

**Q.** What about the “MIC, broth microdilution” value (P. aeruginosa; P. aeruginosa UNT 138-1 spontaneous mutant, AA139 selection 4X, plate 1, colony 2, drug-free passage 5) of the same molecule?
**A.** 1, 1 µg/mL

**Q.** What about the “MIC, broth microdilution” value (P. aeruginosa; P. aeruginosa UNT 138-1 spontaneous mutant, AA139 selection 4X, plate 1, colony 3, drug-free passage 1) of the same molecule?
**A.** 1, 1 µg/mL

**Q.** What about the “MIC, broth microdilution” value (P. aeruginosa; P. aeruginosa UNT 138-1 spontaneous mutant, AA139 selection 4X, plate 1, colony 3, drug-free passage 5) of the same molecule?
**A.** 1, 1 µg/mL

**Q.** And the “MIC, broth microdilution” value (P. aeruginosa; P. aeruginosa UNT 138-1 spontaneous mutant, AA139 selection 4X, plate 1, colony 4, drug-free passage 1)?
**A.** 1, 1 µg/mL

**Q.** And the “MIC, broth microdilution” value (P. aeruginosa; P. aeruginosa UNT 138-1 spontaneous mutant, AA139 selection 4X, plate 1, colony 4, drug-free passage 5)?
**A.** 1, 1 µg/mL

**Q.** And the “MIC, broth microdilution” value (P. aeruginosa; P. aeruginosa UNT 138-1 spontaneous mutant, AA139 selection 4X, plate 1, colony 5, drug-free passage 1)?
**A.** 2 µg/mL (≈ 0.784 µM)

**Q.** And the “MIC, broth microdilution” value (P. aeruginosa; P. aeruginosa UNT 138-1 spontaneous mutant, AA139 selection 4X, plate 1, colony 5, drug-free passage 5)?
**A.** 1 µg/mL (≈ 0.392 µM)

**Q.** And the “MIC, broth microdilution” value (P. aeruginosa; P. aeruginosa UNT 138-1 spontaneous mutant, AA139 selection 4X, plate 1, colony 6, drug-free passage 1)?
**A.** 2 µg/mL (≈ 0.784 µM)

**Q.** What about the “MIC, broth microdilution” value (P. aeruginosa; P. aeruginosa UNT 138-1 spontaneous mutant, AA139 selection 4X, plate 1, colony 6, drug-free passage 5) of the same molecule?
**A.** 1 µg/mL (≈ 0.392 µM)

**Q.** What about the “MIC, broth microdilution” value (P. aeruginosa; P. aeruginosa UNT 138-1 spontaneous mutant, AA139 selection 4X, plate 1, colony 7, drug-free passage 1) of the same molecule?
**A.** 2 µg/mL (≈ 0.784 µM)

**Q.** What about the “MIC, broth microdilution” value (P. aeruginosa; P. aeruginosa UNT 138-1 spontaneous mutant, AA139 selection 4X, plate 1, colony 7, drug-free passage 5) of the same molecule?
**A.** 1 µg/mL (≈ 0.392 µM)

**Q.** And the “MIC, broth microdilution” value (P. aeruginosa; P. aeruginosa UNT 138-1 spontaneous mutant, AA139 selection 4X, plate 2, colony 1, drug-free passage 1)?
**A.** 2, 2 µg/mL

**Q.** What about the “MIC, broth microdilution” value (P. aeruginosa; P. aeruginosa UNT 138-1 spontaneous mutant, AA139 selection 4X, plate 2, colony 1, drug-free passage 5) of the same molecule?
**A.** 2, 2 µg/mL

**Q.** What about the “MIC, broth microdilution” value (P. aeruginosa; P. aeruginosa UNT 138-1 spontaneous mutant, AA139 selection 4X, plate 2, colony 2, drug-free passage 1) of the same molecule?
**A.** 2 µg/mL (≈ 0.784 µM)

**Q.** What about the “MIC, broth microdilution” value (P. aeruginosa; P. aeruginosa UNT 138-1 spontaneous mutant, AA139 selection 4X, plate 2, colony 2, drug-free passage 5) of the same molecule?
**A.** 1 µg/mL (≈ 0.392 µM)

**Q.** What about the “MIC, broth microdilution” value (P. aeruginosa; P. aeruginosa UNT 138-1 spontaneous mutant, AA139 selection 4X, plate 2, colony 3, drug-free passage 1) of the same molecule?
**A.** 2, 2 µg/mL

**Q.** What about the “MIC, broth microdilution” value (P. aeruginosa; P. aeruginosa UNT 138-1 spontaneous mutant, AA139 selection 4X, plate 2, colony 3, drug-free passage 5) of the same molecule?
**A.** 2, 2 µg/mL

**Q.** And the “MIC, broth microdilution” value (P. aeruginosa; P. aeruginosa UNT 138-1 spontaneous mutant, AA139 selection 4X, plate 2, colony 4, drug-free passage 1)?
**A.** 2 µg/mL (≈ 0.784 µM)

**Q.** What about the “MIC, broth microdilution” value (P. aeruginosa; P. aeruginosa UNT 138-1 spontaneous mutant, AA139 selection 4X, plate 2, colony 4, drug-free passage 5) of the same molecule?
**A.** 1 µg/mL (≈ 0.392 µM)

**Q.** And the “MIC, broth microdilution” value (P. aeruginosa; P. aeruginosa UNT 138-1 spontaneous mutant, AA139 selection 4X, plate 2, colony 5, drug-free passage 1)?
**A.** 2 µg/mL (≈ 0.784 µM)

**Q.** What about the “MIC, broth microdilution” value (P. aeruginosa; P. aeruginosa UNT 138-1 spontaneous mutant, AA139 selection 4X, plate 2, colony 5, drug-free passage 5) of the same molecule?
**A.** 1 µg/mL (≈ 0.392 µM)

**Q.** What about the “MIC, broth microdilution” value (P. aeruginosa; P. aeruginosa UNT 138-1 spontaneous mutant, AA139 selection 4X, plate 2, colony 6, drug-free passage 1) of the same molecule?
**A.** 2 µg/mL (≈ 0.784 µM)

**Q.** What about the “MIC, broth microdilution” value (P. aeruginosa; P. aeruginosa UNT 138-1 spontaneous mutant, AA139 selection 4X, plate 2, colony 6, drug-free passage 5) of the same molecule?
**A.** 1 µg/mL (≈ 0.392 µM)

**Q.** And the “MIC, broth microdilution” value (P. aeruginosa; P. aeruginosa UNT 138-1 spontaneous mutant, AA139 selection 4X, plate 2, colony 7, drug-free passage 1)?
**A.** 2 µg/mL (≈ 0.784 µM)

**Q.** And the “MIC, broth microdilution” value (P. aeruginosa; P. aeruginosa UNT 138-1 spontaneous mutant, AA139 selection 4X, plate 2, colony 7, drug-free passage 5)?
**A.** 1 µg/mL (≈ 0.392 µM)

**Q.** And the “MIC, broth microdilution” value (P. aeruginosa; P. aeruginosa UNT 138-1 spontaneous mutant, AA139 selection 8X, plate 1, colony 1, drug-free passage 1)?
**A.** 2 µg/mL (≈ 0.784 µM)

**Q.** And the “MIC, broth microdilution” value (P. aeruginosa; P. aeruginosa UNT 138-1 spontaneous mutant, AA139 selection 8X, plate 1, colony 1, drug-free passage 5)?
**A.** 1 µg/mL (≈ 0.392 µM)

**Q.** And the “MIC, broth microdilution” value (P. aeruginosa; P. aeruginosa UNT 138-1 spontaneous mutant, AA139 selection 8X, plate 1, colony 2, drug-free passage 1)?
**A.** 1, 1 µg/mL

**Q.** And the “MIC, broth microdilution” value (P. aeruginosa; P. aeruginosa UNT 138-1 spontaneous mutant, AA139 selection 8X, plate 1, colony 2, drug-free passage 5)?
**A.** 1, 1 µg/mL

**Q.** And the “MIC, broth microdilution” value (P. aeruginosa; P. aeruginosa UNT 138-1 spontaneous mutant, AA139 selection 8X, plate 1, colony 3, drug-free passage 1)?
**A.** 1, 1 µg/mL

**Q.** And the “MIC, broth microdilution” value (P. aeruginosa; P. aeruginosa UNT 138-1 spontaneous mutant, AA139 selection 8X, plate 1, colony 3, drug-free passage 5)?
**A.** 1, 1 µg/mL

**Q.** What about the “MIC, broth microdilution” value (P. aeruginosa; P. aeruginosa UNT 138-1 spontaneous mutant, AA139 selection 8X, plate 1, colony 4, drug-free passage 1) of the same molecule?
**A.** 2, 2 µg/mL

**Q.** And the “MIC, broth microdilution” value (P. aeruginosa; P. aeruginosa UNT 138-1 spontaneous mutant, AA139 selection 8X, plate 1, colony 4, drug-free passage 5)?
**A.** 2, 2 µg/mL

**Q.** What about the “MIC, broth microdilution” value (P. aeruginosa; P. aeruginosa UNT 138-1 spontaneous mutant, AA139 selection 8X, plate 1, colony 5, drug-free passage 1) of the same molecule?
**A.** 1 µg/mL (≈ 0.392 µM)

**Q.** And the “MIC, broth microdilution” value (P. aeruginosa; P. aeruginosa UNT 138-1 spontaneous mutant, AA139 selection 8X, plate 1, colony 5, drug-free passage 5)?
**A.** 2 µg/mL (≈ 0.784 µM)

**Q.** What about the “MIC, broth microdilution” value (P. aeruginosa; P. aeruginosa UNT 138-1 spontaneous mutant, AA139 selection 8X, plate 2, colony 1, drug-free passage 1) of the same molecule?
**A.** 1, 1 µg/mL

**Q.** What about the “MIC, broth microdilution” value (P. aeruginosa; P. aeruginosa UNT 138-1 spontaneous mutant, AA139 selection 8X, plate 2, colony 1, drug-free passage 5) of the same molecule?
**A.** 1, 1 µg/mL

**Q.** And the “MIC against Staphylococcus aureus” value (S. aureus)?
**A.** 32 to 64 mg/L

**Q.** What about the “BMD MIC” value (S. enterica Typhi) of the same molecule?
**A.** 0.5 mg/L

**Q.** And the “MIC90 (A. baumannii)” value [1]?
**A.** 2.0 mg/L (≈ 0.784 µM)

**Q.** And the “MIC against colistin-resistant isolates (did not surpass)” value [1]?
**A.** ≤ 2 mg/L

— article PMC7311426, “An amphipathic peptide with antibiotic activity against multidrug-resistant Gram-negative bacteria” (Nature Communications, 2020)
